Experimental data reported in paper PMC4558116, “Inhibition of COP9-signalosome (CSN) deneddylating activity and tumor growth of diffuse large B-cell lymphomas by doxycycline” (Oncotarget, 2015).

Biological target: T1, CSN5 (COP-9 signalosome deneddylase subunit) (Homo sapiens, UniProt Q92905)
T1 construct: gene COPS5; purified CSN complex; with COP9 signalosome (CSN) complex; substrate Nedd8-conjugated SCF^Skp2 (Cullin-1)
Assay: fluorescence polarization deneddylation assay with purified CSN and Oregon Green-Nedd8-SCF^Skp2
Assay type: biochemical

T1 sequence (Q92905 2-334): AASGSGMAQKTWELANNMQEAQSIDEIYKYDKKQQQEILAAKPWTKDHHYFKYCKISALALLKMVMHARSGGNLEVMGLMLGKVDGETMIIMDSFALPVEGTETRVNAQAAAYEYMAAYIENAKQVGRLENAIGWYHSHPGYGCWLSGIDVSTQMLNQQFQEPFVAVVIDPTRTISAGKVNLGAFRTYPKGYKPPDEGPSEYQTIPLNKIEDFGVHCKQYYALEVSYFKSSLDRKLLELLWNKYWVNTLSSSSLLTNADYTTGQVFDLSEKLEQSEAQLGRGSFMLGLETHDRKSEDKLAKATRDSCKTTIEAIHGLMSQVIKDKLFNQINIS

In the case of `C[C@H]1c2cccc(O)c2C(=O)C2=C(O)[C@]3(O)C(=O)C(C(N)=O)=C(O)[C@@H](N(C)C)[C@@H]3[C@@H](O)[C@@H]21` [doxycycline], the IC50 is reported as roughly 110 µM.
